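Method: 48-hour compound exposure of cells in 96-well plates, five concentrations, linear interpolation of endpoints. GI50 is the concentration that inhibits growth by half. TGI marks complete inhibition of growth.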
Key:
Test in all cases: NCI tumour cell line growth inhibition, 48 h
[1] = tested on: NCI-H226 lung
[2] = tested on: ACHN renal
[3] = tested on: MDA-MB-435
[4] = tested on: CCRF-CEM leukemia
[5] = tested on: OVCAR-5 ovarian
[6] = tested on: OVCAR-8 ovarian
[7] = tested on: MDA-MB-231 breast
[8] = tested on: LOX IMVI melanoma
[9] = tested on: SK-MEL-5 melanoma
[10] = tested on: A549 NSCLC
[11] = tested on: PC-3 prostate
[12] = tested on: NCI-H522 lung
[13] = tested on: OVCAR-4 ovarian
[14] = tested on: TK-10 renal
[15] = tested on: SK-OV-3 ovarian
[16] = tested on: KM12 colon
[17] = tested on: SW-620 colon
[18] = tested on: MOLT-4 leukemia
[19] = tested on: UACC-62 melanoma
[20] = tested on: A498 renal
[21] = tested on: HS 578T breast
[22] = tested on: SF-268 CNS
[23] = tested on: DU-145 prostate
[24] = tested on: SR leukemia
[25] = tested on: SNB-19 CNS
[26] = tested on: NCI/ADR-RES ovarian
[27] = tested on: EKVX NSCLC
[28] = tested on: K-562 leukemia

Compound: CC(C)C[C@H](NC(=O)CNC(=O)c1cc(Cl)ccc1Cl)B1OC(=O)CC(CC(=O)O)(C(=O)O)O1 (stereo not given in full)
- GI50 [1]: 14.1 nM
- TGI [1]: 32.5 nM
- GI50 [2]: 38.9 nM
- TGI [2]: > 59900 nM
- GI50 [3]: 22.2 nM
- TGI [3]: 61.2 nM
- GI50 [4]: 29.9 nM
- TGI [4]: > 100000 nM
- GI50 [5]: 92.8 nM
- TGI [5]: 1200 nM
- GI50 [6]: 66 nM
- TGI [6]: 1440 nM
- GI50 [7]: 53.2 nM
- TGI [7]: 485 nM
- GI50 [8]: 32.5 nM
- TGI [8]: 120 nM
- GI50 [9]: 17.7 nM
- TGI [9]: 46.7 nM
- GI50 [10]: 110 nM
- TGI [10]: 20600 nM
- GI50 [11]: 105 nM
- TGI [11]: 1820 nM
- GI50 [12]: 21.7 nM
- TGI [12]: 56 nM
- GI50 [13]: 73.3 nM
- TGI [13]: 19000 nM
- GI50 [14]: 28.7 nM
- TGI [14]: 373 nM
- GI50 [15]: 261 nM
- TGI [15]: 29600 nM
- GI50 [16]: 105 nM
- TGI [16]: 607 nM
- GI50 [17]: 36.4 nM
- GI50 [18]: 36.6 nM
- TGI [18]: > 100000 nM
- GI50 [19]: 39.6 nM
- TGI [19]: 221 nM
- GI50 [20]: 34.7 nM
- TGI [20]: 164 nM
- GI50 [21]: 52.4 nM
- TGI [21]: 80700 nM
- GI50 [22]: 72.3 nM
- TGI [22]: 2430 nM
- GI50 [23]: 80.4 nM
- TGI [23]: 14800 nM
- GI50 [24]: 38.4 nM
- TGI [24]: > 100000 nM
- GI50 [25]: 209 nM
- TGI [25]: > 100000 nM
- GI50 [26]: 368 nM
- TGI [26]: > 100000 nM
- GI50 [27]: 369 nM
- TGI [27]: 30800 nM
- GI50 [28]: 74 nM
- TGI [28]: > 100000 nM
